# Test results as given in patent US10703746B2, “Mutant IDH1 inhibitors useful for treating cancer” (THE UNITED STATES OF AMERICA, AS REPRESENTED BY THE …, priority 2014, dated 2020).
# How the values were obtained:
# IDH1 R132H = IDH1 R132H (Homo sapiens, UniProt O75874, R132H); assay: IDH1 R132H enzymatic assay (NADPH depletion coupled to diaphorase/resazurin); type: biochemical
# IDH1 R132C = IDH1 R132C (Homo sapiens, UniProt O75874, R132C); assay: IDH1 R132C enzymatic assay (NADPH depletion coupled to diaphorase/resazurin); type: biochemical
# IDH1 R132C, sequence (O75874 whole entry R132C): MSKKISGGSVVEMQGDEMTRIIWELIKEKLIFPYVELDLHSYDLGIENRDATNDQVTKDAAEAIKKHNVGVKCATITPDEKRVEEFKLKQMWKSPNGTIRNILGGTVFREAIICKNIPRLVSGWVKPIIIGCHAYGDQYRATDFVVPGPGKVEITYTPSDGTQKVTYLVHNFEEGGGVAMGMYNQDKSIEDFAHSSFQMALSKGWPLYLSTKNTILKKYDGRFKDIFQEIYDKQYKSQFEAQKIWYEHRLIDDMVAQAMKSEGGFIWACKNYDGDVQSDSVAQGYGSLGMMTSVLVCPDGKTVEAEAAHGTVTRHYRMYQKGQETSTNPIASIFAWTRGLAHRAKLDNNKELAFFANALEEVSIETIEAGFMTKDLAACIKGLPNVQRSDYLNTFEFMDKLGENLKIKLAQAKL
# Summary of the method: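 NADPH depletion, read via diaphorase/resazurin coupling, after adding substrate at 0.6 mM α-KG and 0.012 mM NADPH. Beforehand, 0.00032 mg/mL enzyme sat with compound 30 min at room temperature in pH 6.5 potassium phosphate buffer with MgCl2, glycerol and BSA.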
# [1] = IDH1 R132H enzymatic inhibition, IC50 class
# [2] = IDH1 R132C enzymatic inhibition, IC50 class
# [3] = enzymatic inhibition, IDH1 R132H
# [4] = enzymatic inhibition, IDH1 R132C
# IDH1 R132H, sequence (O75874 whole entry R132H): as the sequence (O75874 whole entry R132C) above, with C132H counted along it
IC50 (IDH1 R132H; [1]),IC50 (IDH1 R132C; [2]),IC50 (IDH1 R132H; [3]),IC50 (IDH1 R132C; [4]),SMILES
< 300 nM,< 300 nM,,,CCc1cccc(CC)c1-n1c(C=C(C)C)c(C(=O)N2C[C@H]3CC[C@@H](C2)N3)cc(-c2nc(-c3ccc(Cl)cc3)cs2)c1=O [Compound 388]
,,< 300 nM,< 300 nM,CCc1cccc(CC)c1-n1c(CC(C)C)c(C(=O)N2CCNCC2)cc(-c2csc(-c3ccc(Cl)cc3)n2)c1=O [Compound 505]
300 to 1000 nM,300 to 1000 nM,,,CCc1cccc(CC)c1-n1c2c(cc(-c3nc(-c4ccc(F)cc4)cs3)c1=O)C(=O)CC(C)(C)C2 [Compound 148]
,,> 20000 nM,> 20000 nM,Cc1ccc(CN2CCN(C)CC2)cc1-n1c2c(cc(-c3nc(-c4ccc(Cl)cc4)cs3)c1=O)C(=O)CCC2 [Compound 563]
,,< 300 nM,< 300 nM,CCc1cccc(CC)c1-n1c(C=C(C)C)c(C(=O)N2CCNCC2)cc(-c2ccn(-c3ccc(C4CC4)cc3)n2)c1=O [Compound 606]
300 to 1000 nM,< 300 nM,,,CCc1cccc(CC)c1-n1c(CC(C)C)c(C(=O)NC[C@@H](N)C(=O)O)cc(-c2nc(-c3ccc(Cl)cc3)cs2)c1=O [Compound 172]
300 to 1000 nM,300 to 1000 nM,,,CCOc1ccc(F)cc1-n1c(CC(C)C)c(C(=O)N2CCNCC2)cc(-c2nc(-c3ccc(C(F)F)cc3)cs2)c1=O [Compound 686]
5000 to 20000 nM,1000 to 5000 nM,,,CCc1cccc(CC)c1-n1c(C)c(C(=O)N(C)CCCNC)cc(-c2nc(-c3ccc(Cl)cc3)cs2)c1=O [Compound 133]
1000 to 5000 nM,5000 to 20000 nM,,,CCc1cccc(CC)c1-n1c(CC)c(C(=O)O)cc(-c2nc(-c3ccc(Cl)cc3)cs2)c1=O [Compound 236]
5000 to 20000 nM,5000 to 20000 nM,,,COc1ncc(C2=CCNCC2)cc1-n1c2c(cc(-c3nc(-c4ccc(Cl)cc4)cs3)c1=O)C(=O)CC(C)(C)C2 [Compound 351]
,,300 to 1000 nM,300 to 1000 nM,CCc1cccc(CC)c1-n1c(CC(C)C)c(C(=O)N2CCNCC2)cc(-c2nc(-c3ccc(Cl)cc3)c(C(F)(F)F)s2)c1=O [Compound 430]
< 300 nM,300 to 1000 nM,,,CCc1cccc(CC)c1-n1c(C)c(C(=O)N2CCN[C@@H](C)C2)cc(-c2nc(-c3ccc(Cl)cc3)cs2)c1=O [Compound 38]
< 300 nM,300 to 1000 nM,,,CCc1cccc(CC)c1-n1c(CC(C)C)c(C(=O)NCCO)cc(-c2nc(-c3ccc(Cl)cc3)cs2)c1=O [Compound 4]
300 to 1000 nM,< 300 nM,,,CCc1cccc(CC)c1-n1c(CC(C)C)c(C(=O)N2CCN[C@@H](C(=O)O)C2)cc(-c2nc(-c3ccc(Cl)cc3)cs2)c1=O [Compound 102]
< 300 nM,< 300 nM,,,CCc1cccc(CC)c1-n1c(C=C(C)C)c(C(=O)N2CCNC(C#N)C2)cc(-c2nc(-c3ccc(Cl)cc3)cs2)c1=O (stereo not drawn) [Compound 657]
< 300 nM,< 300 nM,,,CCc1cccc(CC)c1-n1c(C=C(C)C)c(C(=O)N2CCNC(C(N)=O)C2)cc(-c2ccn(-c3ccc(Cl)cc3)n2)c1=O (stereo not drawn) [Compound 653]
,,< 300 nM,< 300 nM,COc1cccc(OC)c1-n1c(C=C(C)C)c(C(=O)N2CCNCC2)cc(-c2nc(-c3ccc(Cl)cc3)cs2)c1=O [Compound 467]
,,< 300 nM,< 300 nM,CCc1cccc(CC)c1-n1c(C=C(C)C)c(C(=O)N2CCNC(=O)C2C)cc(-c2nc(-c3ccc(Cl)cc3)cs2)c1=O (stereo not drawn) [Compound 526]
> 20000 nM,5000 to 20000 nM,,,CCc1cccc(CC)c1-n1c2c(cc(-c3nc(C4=CCNCC4)c(C)s3)c1=O)C(=O)CC(C)(C)C2 [Compound 298]
,,1000 to 5000 nM,5000 to 20000 nM,CCc1cccc(CC)c1-n1c(C=C(C)C)c(C(=O)N2CCNCC2)cc(-c2nn(-c3ccc(Cl)cc3)cc2C(F)(F)F)c1=O [Compound 435]

IC50 (IDH1 R132H; [1]),IC50 (IDH1 R132C; [2]),IC50 (IDH1 R132H; [3]),IC50 (IDH1 R132C; [4]),SMILES
< 300 nM,< 300 nM,,,CCc1cccc(CC)c1-n1c(C=C(C)C)c(C(=O)N2CCC(NC)CC2)cc(-c2nc(-c3ccc(Cl)cc3)cs2)c1=O [Compound 623]
,,< 300 nM,< 300 nM,CCOc1ccc(C)cc1-n1c(C=C(C)C)c(C(=O)N2CCNCC2)cc(-c2nc(-c3ccc(Cl)cc3)cs2)c1=O [Compound 528]
,,> 20000 nM,> 20000 nM,CN1CCN(Cc2cccc(-n3c4c(cc(-c5nc(-c6ccc(Cl)cc6)cs5)c3=O)C(=O)CCC4)c2)CC1 [Compound 570]
1000 to 5000 nM,< 300 nM,,,CCc1cccc(CC)c1-n1c(CC(C)C)c(C(=O)N2CCNCC2C(=O)OC)cc(-c2nc(-c3ccc(Cl)cc3)cs2)c1=O (stereo not drawn) [Compound 147]
,,5000 to 20000 nM,5000 to 20000 nM,COc1cccc(CN2CCN(C)CC2)c1-n1c2c(cc(-c3nc(-c4ccc(Cl)cc4)cs3)c1=O)C(=O)CCC2 [Compound 411]
,,< 300 nM,< 300 nM,CCc1cccc(CC)c1-n1c(C=C(C)C)c(C(=O)N2CCNC3(CC3)C2)cc(-c2nc(-c3ccc(Cl)cc3)cs2)c1=O [Compound 431]
300 to 1000 nM,300 to 1000 nM,,,CCc1cccc(CC)c1-n1c(C(C)C)c(C(=O)N2CCN[C@H](CO)C2)cc(-c2nc(-c3ccc(Cl)cc3)cs2)c1=O [Compound 252]
> 20000 nM,5000 to 20000 nM,,,"CCc1cccc(CC)c1-n1c(C)c(C(=O)OC)cc(-c2nc(-c3ccc(Cl)cc3)cs2)c1=O [Compound 268, methyl 5-(4-(4-chlorophenyl)thiazol-2-yl)-1-(2,6-diethylphenyl)-2-methyl-6-oxo-1,6-dihydropyridine-3-carboxylate]"
< 300 nM,1000 to 5000 nM,,,CCc1cccc(CC)c1-n1c(C=C(C)C)c(C(=O)N2CCNCC2)cc(-c2nn(-c3ccc(Cl)cc3)cc2C)c1=O [Compound 638]
1000 to 5000 nM,1000 to 5000 nM,,,COc1ccc(OC)c(-n2c3c(cc(-c4nc(-c5ccc(Cl)cc5)c[nH]4)c2=O)C(=O)CC(C)(C)C3)c1 [Compound 291]
,,1000 to 5000 nM,1000 to 5000 nM,CCc1cccc(CC)c1-n1c2c(cc(-c3nc(-c4ccc(Cl)cc4)cs3)c1=O)C(=O)CCC2 [Compound 525]
300 to 1000 nM,300 to 1000 nM,,,CCc1cccc(CC)c1-n1c(CC(C)C)c(CO)cc(-c2nc(-c3ccc(Cl)cc3)cs2)c1=O [Compound 391]
< 300 nM,< 300 nM,,,CCc1cccc(CC)c1-n1c(CC(C)C)c(C(=O)N2CCNCC2)cc(-c2nc(-c3ccc(Cl)cc3)c(C(=O)OC)s2)c1=O [Compound 387]
5000 to 20000 nM,5000 to 20000 nM,,,COc1ccc(C(=O)O)cc1-n1c2c(cc(-c3nc(-c4ccc(Cl)cc4)cs3)c1=O)C(=O)CC(C)(C)C2 [Compound 27]
,,< 300 nM,< 300 nM,CCc1cccc(CC)c1-n1c(C=C(C)C)c(C(=O)N2CCNC[C@@H]2C)cc(-c2nc(-c3ccc(C(F)(F)F)cc3)cs2)c1=O [Compound 604]
< 300 nM,< 300 nM,,,CCc1cccc(CC)c1-n1c(COC)c(C(=O)N2CCNCC2)cc(-c2nc(-c3ccc(Cl)cc3)cs2)c1=O [Compound 275]
300 to 1000 nM,< 300 nM,,,CCc1cccc(CC)c1-n1c(CC(C)C)c(C(=O)N2CCNCC2c2ccccc2)cc(-c2nc(-c3ccc(Cl)cc3)cs2)c1=O (stereo not drawn) [Compound 145]
> 20000 nM,1000 to 5000 nM,,,Cc1noc(C)c1-n1c2c(cc(-c3nc(-c4ccc(Cl)cc4)cs3)c1=O)C(=O)CC(C)(C)C2 [Compound 13]
300 to 1000 nM,< 300 nM,,,CCc1cccc(CC)c1-n1c(CC(C)C)c(C(=O)N2CCNCC2)cc(-c2nc(-c3ccc(Cl)cc3)c(C3CC3)s2)c1=O [Compound 385]
